Results on 29 molecules are retold here after patent US12673944B2, “Compounds having inhibitory activity against glucosylceramide synthase or pharmaceutically acceptable salt thereof, processes for preparing the same, and pharmaceutical compositions comprising the same” (YUHAN CORPORATION, priority 2019, dated 2026).

Assay [1] deals with GM1 production in Jurkat cells. Nature of the assay: cells. Format: cell-based.
The target of assay [2] is T1, glucosylceramide synthase (GCS) (Homo sapiens, UniProt Q16739).
T1 construct: The obtained supernatant was used; host or cells: A549 cells (lysate supernatant after sonication)
T1 sequence (Q16739 1-394): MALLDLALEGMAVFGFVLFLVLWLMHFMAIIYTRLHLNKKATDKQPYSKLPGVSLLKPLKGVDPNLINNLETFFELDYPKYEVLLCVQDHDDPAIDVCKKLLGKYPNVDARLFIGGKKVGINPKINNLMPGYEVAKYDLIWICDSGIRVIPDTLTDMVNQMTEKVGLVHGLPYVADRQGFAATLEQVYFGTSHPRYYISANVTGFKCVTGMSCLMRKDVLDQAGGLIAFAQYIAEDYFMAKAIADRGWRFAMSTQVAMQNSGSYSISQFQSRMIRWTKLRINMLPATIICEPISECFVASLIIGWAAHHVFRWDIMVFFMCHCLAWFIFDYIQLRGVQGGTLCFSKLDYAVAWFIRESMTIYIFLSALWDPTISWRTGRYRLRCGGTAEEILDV
Nature of the assay: GCS enzyme inhibition assay (A549 cell lysate, NBD C6-ceramide, HPLC fluorescence). Format: biochemical. Conditions: inhibitory activity against GCS, 37° C., 90 minutes. In outline: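 Percent GCS activity was derived from the GlcCer share of Cer plus GlcCer areas, scaled from ibiglustat (0%) to DMSO (100%). Enzyme came from sonicated A549 lysate in 50 mM HEPES pH 7.3; 90 min incubation at 37° C, chloroform/methanol stop and extraction.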

The structures appear in SMILES notation. Where two headings read alike, the source gives them in different places.

On to `CC1(C)COc2cc(-c3cnn(Cc4ccccc4)c3)ccc2C1NC(=O)O[C@@H]1CN2CCC1CC2` (stereo partly drawn) [Example 180, (S)-quinuclidin-3-yl (7-(1-benzyl-1H-pyrazol-4-yl)-3,3-dimethylchroman-4-yl)carbamate], for which the IC50 in assay [1] (Homo sapiens, Jurkat, 72 h) was 3.42 nM; in assay [2], 0.44 nM.
Taken in the same sequence, the figures for `CC1(C)COc2cc(-c3ccc4c(c3)CCO4)ccc2C1NC(=O)O[C@@H]1CN2CCC1CC2` (stereo partly drawn) [Example 181, (S)-quinuclidin-3-yl (7-(2,3-dihydrobenzofuran-5-yl)-3,3-dimethylchroman-4-yl)carbamate] were 5.55 nM and 0.5 nM.
The like results for `CC1(C)COc2cc(-c3ccc(OCC4CC4)nc3)ccc2C1NC(=O)O[C@@H]1CN2CCC1CC2` (stereo partly drawn) [Example 182, (S)-quinuclidin-3-yl (7-(6-(cyclopropylmethoxy)pyridin-3-yl)-3,3-dimethylchroman-4-yl)carbamate] were, in that order, 0.79 nM and 0.25 nM.
The like results for `CC1(C)COc2cc(-c3cc4ccccc4o3)ccc2C1NC(=O)O[C@@H]1CN2CCC1CC2` (stereo partly drawn) [Example 183, (S)-quinuclidin-3-yl (7-(benzofuran-2-yl)-3,3-dimethylchroman-4-yl)carbamate] were, in that order, 6.43 nM and 1.22 nM.
As for `CC1(C)COc2cc(-c3cccc(S(=O)(=O)N4CCCC4)c3)ccc2C1NC(=O)O[C@@H]1CN2CCC1CC2` (stereo partly drawn) [Example 184, (S)-quinuclidin-3-yl (3,3-dimethyl-7-(3-(pyrrolidin-1-ylsulfonyl)phenyl)chroman-4-yl)carbamate], the IC50 was 4.16 nM in assay [1] (Homo sapiens, Jurkat, 72 h) and 0.91 nM in assay [2].
Turning to `CC1(C)COc2cc(-c3ccccc3C(F)(F)F)ccc2C1NC(=O)O[C@@H]1CN2CCC1CC2` (stereo partly drawn) [Example 185, (S)-quinuclidin-3-yl (3,3-dimethyl-7-(2-(trifluoromethyl)phenyl)chroman-4-yl)carbamate], the concentration for half-maximal inhibition (IC50) in assay [1] (Homo sapiens, Jurkat, 72 h) worked out at 0.98 nM; in assay [2], 0.67 nM.
For `CCOc1ccccc1-c1ccc2c(c1)OCC(C)(C)C2NC(=O)O[C@@H]1CN2CCC1CC2` (stereo partly drawn) [Example 186, (S)-quinuclidin-3-yl (7-(2-ethoxyphenyl)-3,3-dimethylchroman-4-yl)carbamate], the IC50 in assay [1] (Homo sapiens, Jurkat, 72 h) is 2.81 nM; in assay [2] it was 0.38 nM.
The like results for `CC1(C)COc2cc(-c3ccsc3)ccc2C1NC(=O)O[C@@H]1CN2CCC1CC2` (stereo partly drawn) [Example 187, (S)-quinuclidin-3-yl (3,3-dimethyl-7-(thiophen-3-yl)chroman-4-yl)carbamate] were, in that order, 2.06 nM and 0.32 nM.
With `COc1ccc(-c2ccc3c(c2)OCC(C)(C)C3NC(=O)O[C@@H]2CN3CCC2CC3)cc1C(F)(F)F` (stereo partly drawn) [Example 188, (S)-quinuclidin-3-yl (7-(4-methoxy-3-(trifluoromethyl)phenyl)-3,3-dimethylchroman-4-yl)carbamate], the results for the half-maximal inhibitory concentration (IC50) in assay [1] and in assay [2] were 4.59 nM and 0.75 nM, respectively.
As to `CC1(C)COc2cc(-c3ccccc3C#N)ccc2C1NC(=O)O[C@@H]1CN2CCC1CC2` (stereo partly drawn) [Example 189, (S)-quinuclidin-3-yl (7-(2-cyanophenyl)-3,3-dimethylchroman-4-yl)carbamate], the IC50 in assay [1] (Homo sapiens, Jurkat, 72 h) was determined as 0.04 nM; in assay [2], 0.36 nM.
With `CC1(C)COc2cc(-c3ccc4c(c3)OCCCO4)ccc2C1NC(=O)O[C@@H]1CN2CCC1CC2` (stereo partly drawn) [Example 190, (S)-quinuclidin-3-yl (7-(3,4-dihydro-2H-benzo[b][1,4]dioxepin-7-yl)-3,3-dimethylchroman-4-yl)carbamate], the IC50 in assay [1] (Homo sapiens, Jurkat, 72 h) was 0.03 nM; in assay [2], 0.29 nM.
Taken in the same sequence, the figures for `CC1(C)COc2cc(-c3ccc4nsnc4c3)ccc2C1NC(=O)O[C@@H]1CN2CCC1CC2` (stereo partly drawn) [Example 191, (S)-quinuclidin-3-yl (7-(benzo[c][1,2,5]thiadiazol-5-yl)-3,3-dimethylchroman-4-yl)carbamate] were 0.31 nM and 0.63 nM.
For `CC1(C)COc2cc(-c3cncc4ccccc34)ccc2C1NC(=O)O[C@@H]1CN2CCC1CC2` (stereo partly drawn) [Example 192, (S)-quinuclidin-3-yl (7-(isoquinolin-4-yl)-3,3-dimethylchroman-4-yl)carbamate], the IC50 was 1.35 nM in assay [1] and 0.92 nM in assay [2].
`CC(C)(C)c1ccc(-c2ccc3c(c2)OCC(C)(C)C3NC(=O)O[C@@H]2CN3CCC2CC3)cc1` (stereo partly drawn) [Example 193, (S)-quinuclidin-3-yl (7-(4-(tert-butyl)phenyl)-3,3-dimethylchroman-4-yl)carbamate]: the IC50 in assay [1] (Homo sapiens, Jurkat, 72 h) worked out at 0.46 nM; in assay [2], 0.51 nM.
Consider `Cc1cc(-c2ccc3c(c2)OCC(C)(C)C3NC(=O)O[C@@H]2CN3CCC2CC3)ccc1N1CCOCC1` (stereo partly drawn) [Example 194, (S)-quinuclidin-3-yl (3,3-dimethyl-7-(3-methyl-4-morpholinophenyl)chroman-4-yl)carbamate], for which the half-inhibitory concentration (IC50) was found to be 1.81 nM in assay [1] (Homo sapiens, Jurkat, 72 h) and 0.6 nM in assay [2].
With `CC1(C)COc2cc(-c3ccc(Cl)c(Cl)c3)ccc2C1NC(=O)O[C@@H]1CN2CCC1CC2` (stereo partly drawn) [Example 195, (S)-quinuclidin-3-yl (7-(3,4-dichlorophenyl)-3,3-dimethylchroman-4-yl)carbamate], the 50% inhibitory concentration (IC50) in assay [1] (Homo sapiens, Jurkat, 72 h) is 1.39 nM; in assay [2] it was 1.14 nM.
The like results for `Cn1ncc2ccc(-c3ccc4c(c3)OCC(C)(C)C4NC(=O)O[C@@H]3CN4CCC3CC4)cc21` (stereo partly drawn) [Example 196, (S)-quinuclidin-3-yl (3,3-dimethyl-7-(1-methyl-1H-indazol-6-yl)chroman-4-yl)carbamate] were, in that order, 6.13 nM and 1.25 nM.
Taken in the same sequence, the figures for `CC1(C)COc2cc(-c3ccc4cc[nH]c4c3)ccc2C1NC(=O)O[C@@H]1CN2CCC1CC2` (stereo partly drawn) [Example 197, (S)-quinuclidin-3-yl (7-(1H-indol-6-yl)-3,3-dimethylchroman-4-yl)carbamate] were 1.99 nM and 0.9 nM.
The like results for `CN1CCOc2cc(-c3ccc4c(c3)OCC(C)(C)C4NC(=O)O[C@@H]3CN4CCC3CC4)ccc21` (stereo partly drawn) [Example 198, (S)-quinuclidin-3-yl (3,3-dimethyl-7-(4-methyl-3,4-dihydro-2H-benzo[b][1,4]oxazin-7-yl)chroman-4-yl)carbamate] were, in that order, 1.83 nM and 0.66 nM.
On to `Cc1ccc(-c2ccc3c(c2)OCC(C)(C)C3NC(=O)O[C@@H]2CN3CCC2CC3)cc1C#N` (stereo partly drawn) [Example 199, (S)-quinuclidin-3-yl (7-(3-cyano-4-methylphenyl)-3,3-dimethylchroman-4-yl)carbamate], for which the IC50 in assay [1] (Homo sapiens, Jurkat, 72 h) stood at 3.63 nM; in assay [2], 0.51 nM.
The like results for `CC1(C)COc2cc(-c3cc(F)c(F)cc3F)ccc2C1NC(=O)O[C@@H]1CN2CCC1CC2` (stereo partly drawn) [Example 200, (S)-quinuclidin-3-yl (3,3-dimethyl-7-(2,4,5-trifluorophenyl)chroman-4-yl)carbamate] were, in that order, 1.94 nM and 0.49 nM.
As to `CC1(C)COc2cc(-c3ccc(OC(F)(F)F)cc3)ccc2C1NC(=O)O[C@@H]1CN2CCC1CC2` (stereo partly drawn) [Example 201, (S)-quinuclidin-3-yl (3,3-dimethyl-7-(4-(trifluoromethoxy)phenyl)chroman-4-yl)carbamate], the IC50 in assay [1] (Homo sapiens, Jurkat, 72 h) is 1.12 nM; in assay [2] it was 0.41 nM.
The like results for `CC1(C)COc2cc(-c3ccc(C4CCOCC4)cc3)ccc2C1NC(=O)O[C@@H]1CN2CCC1CC2` (stereo partly drawn) [Example 202, (S)-quinuclidin-3-yl (3,3-dimethyl-7-(4-(tetrahydro-2H-pyran-4-yl)phenyl)chroman-4-yl)carbamate] were, in that order, 0.47 nM and 0.28 nM.
Regarding `COc1cc(-c2ccc3c(c2)OCC(C)(C)C3NC(=O)O[C@@H]2CN3CCC2CC3)ccn1` (stereo partly drawn) [Example 203, (S)-quinuclidin-3-yl (7-(2-methoxypyridin-4-yl)-3,3-dimethylchroman-4-yl)carbamate], the IC50 is 8.03 nM in assay [1] (Homo sapiens, Jurkat, 72 h) and 0.72 nM in assay [2].
Consider `CC1(C)COc2cc(-c3ccc(N4CCOCC4)c(Cl)c3)ccc2C1NC(=O)O[C@@H]1CN2CCC1CC2` (stereo partly drawn) [Example 205, (S)-quinuclidin-3-yl (7-(3-chloro-4-morpholinophenyl)-3,3-dimethylchroman-4-yl)carbamate], for which the IC50 in assay [1] (Homo sapiens, Jurkat, 72 h) came to 0.25 nM; in assay [2], 0.65 nM.
Taken in the same sequence, the figures for `COc1ccc(-c2ccc3c(c2)OCC(C)(C)C3NC(=O)O[C@@H]2CN3CCC2CC3)cc1` (stereo partly drawn) [Example 206, (S)-quinuclidin-3-yl (7-(4-methoxyphenyl)-3,3-dimethylchroman-4-yl)carbamate] were 0.01 nM and 0.5 nM.
Turning to `COc1cncc(-c2ccc3c(c2)OCC(C)(C)C3NC(=O)O[C@@H]2CN3CCC2CC3)c1` (stereo partly drawn) [Example 207, (S)-quinuclidin-3-yl (7-(5-methoxypyridin-3-yl)-3,3-dimethylchroman-4-yl)carbamate], the 50% inhibitory concentration (IC50) in assay [1] (Homo sapiens, Jurkat, 72 h) is 1.06 nM; in assay [2], 1.12 nM.
The like results for `CC1(C)COc2cc(-c3cc4ccccc4s3)ccc2C1NC(=O)O[C@@H]1CN2CCC1CC2` (stereo partly drawn) [Example 208, (S)-quinuclidin-3-yl (7-(benzo[b]thiophen-2-yl)-3,3-dimethylchroman-4-yl)carbamate] were, in that order, 2.47 nM and 1.41 nM.
Taken in the same sequence, the figures for `CCOc1ccc(-c2ccc3c(c2)OCC(C)(C)C3NC(=O)O[C@@H]2CN3CCC2CC3)cc1` (stereo partly drawn) [Example 209, (S)-quinuclidin-3-yl (7-(4-ethoxyphenyl)-3,3-dimethylchroman-4-yl)carbamate] were 0.01 nM and 0.34 nM.

By IC50 is commonly meant the concentration that gives 50% inhibition.
